Consider 8 compounds from ChEMBL document CHEMBL3098088, “Synthesis and antimycobacterial activity of novel camphane-based agents” (Bioorg Med Chem Lett, 2014).

SMILES strings stand for the structures. In brackets after ≈: the same amount, converted by molar mass. Counter-ions that a name gives are not always drawn.

Data set [1] in a line: Selectivity index, ratio of IC50 for human 293T cells to MIC for Mycobacterium tuberculosis H37Rv. The class given is toxicity, cell-based. As to conditions: read-out: Selectivity Index.
In data set [2] the test system is Mycobacterium tuberculosis. The data set can be described thus: Antimycobacterial activity against Mycobacterium tuberculosis H37Rv after 45 days. The data set is classed as functional.
The subject of the next data set is HEK-293T. Nature of the data set: Cytotoxicity against human 293T cells. The class given is cell-based.

The MIC is the smallest concentration in the dilution series that meets the test's criterion for growth inhibition. Lower therefore signals greater potency. In general, IC50 refers to the point on the concentration scale where inhibition reaches its midpoint. A low value points to inhibition by little substance. Consider `CC1(C)[C@@H]2CC[C@@]1(C)[C@H](NC(=O)[C@@H](O)c1ccccc1)C2`, for which the selectivity ratio in data set [1] was found to be 619. In data set [2], this compound returned an MIC of 0.17 µM (≈ 0.0489 µg/mL). Besides, in the data set on HEK-293T, the IC50 amounted to 105 µM.

As to `CC(C)[C@H](O)C(=O)N[C@@H]1C[C@H]2CC[C@]1(C)C2(C)C`, the selectivity ratio in data set [1] is over 25.3. The compound further showed a minimum inhibitory concentration (MIC) in data set [2] of 7.89 µM (≈ 2 µg/mL). The compound further returned an IC50 with HEK-293T of over 200 µM.

`CSCC[C@H](O)C(=O)N[C@@H]1C[C@H]2CC[C@]1(C)C2(C)C`: in data set [1], the selectivity ratio is 1010. In data set [2], the MIC was 0.17 µM (≈ 0.0485 µg/mL). The IC50 in the data set on HEK-293T came to 172 µM.

With `CC(C)C[C@H](O)C(=O)N[C@@H]1C[C@H]2CC[C@]1(C)C2(C)C`, the selectivity ratio in data set [1] was 14.9. In data set [2], this compound yielded an MIC of 7.48 µM (≈ 2 µg/mL). This compound also gave an IC50 in the data set with HEK-293T of 112 µM.

With `CC[C@H](C)[C@H](O)C(=O)N[C@@H]1C[C@H]2CC[C@]1(C)C2(C)C`, in data set [1], the selectivity ratio was 13.6. Moreover, inhibition of growth in data set [2] (MIC) required 7.48 µM (≈ 2 µg/mL). Also, in the data set on HEK-293T, the IC50 came out at 107 µM.

Regarding `CC1(C)[C@@H]2CC[C@@]1(C)[C@H](NC(=O)[C@@H](O)Cc1ccccc1)C2`, the selectivity ratio in data set [1] was 330. For the same compound, in data set [2], the MIC is 0.16 µM (≈ 0.0482 µg/mL). In the data set with HEK-293T, this compound showed an IC50 of 52.8 µM.

Regarding `CC[C@@H](CO)NCCN[C@@H](CC)CO` [ETHAMBUTOL HYDROCHLORIDE], 7.22 µM was the least that counted as inhibitory in data set [2] (MIC).

For the compound `CO[C@H]1/C=C/O[C@@]2(C)Oc3c(C)c(O)c4c(O)c(c(/C=N/N5CCN(C)CC5)c(O)c4c3C2=O)NC(=O)/C(C)=C\C=C\[C@H](C)[C@H](O)[C@@H](C)[C@@H](O)[C@@H](C)[C@H](OC(C)=O)[C@@H]1C` [RIFAMPIN], the MIC in data set [2] turned out to be 0.06 µM (≈ 0.0494 µg/mL).
